The subject of one data set is 229E virus. As to the kind of experiment: organism not typed. The format is cell-based, human 229E coronavirus. As to conditions: for combination effect with Camostat mesylate (in words) / combination effect with IFNα 4b (in words) / inhibition of virus replication: PAC-MAN with the guide; for inhibition of virus replication: no drug, 24 hpi, vs NT6.
Data set [1] relates to 229E. The format is cell-based, human 229E coronavirus.
Data set [2] deals with 229E. The format is cell-based, human 229E coronavirus. This is another data set of the same source.
The test system of a further data set is SARS-CoV-2. The format is cell-based. To be noted: supernatant test, SARS-CoV-2 MOI=0.01.
For data set [3], the system named is methylenetetrahydrofolate dehydrogenase 1 (MTHFD1). As to the kind of experiment: Knockdown of endogenous gene in A549 cells by Cas13d and crRNAs (qPCR). To be noted: 3 days. The format is cell-based, human.
Data set [4] relates to transmembrane protease, serine 2 (TMPRSS2). Described as above. In kind it is cell-based, human. To be noted: 3 days.
Setting [5] is: single agent alone, vs control (NT).

pEC50: −log10 of the molar value. Where a name gives a salt, the structure may show the parent alone. Read-outs that look alike come from different tables or passages of the source.

For the compound `CN(C)C(=O)COC(=O)Cc1ccc(OC(=O)c2ccc(NC(=N)N)cc2)cc1` [Camostat mesylate, reference compound], the cytotoxicity entry was “no obvious cytotoxicity”. In addition, in the data set with 229E virus, the pEC50 (usually the EC50 on a negative log10 scale, so that one unit is a factor of ten) is ~3.30 and the “combination effect of the drug with PAC-MAN (in words)” value is reported as “synergistic effects”. Besides, the “fold decrease of virus titer” value with 229E virus (setting [5]) turned out to be 2.4 fold.
Turning to “R19: crRNA targeting SARS-CoV-2 RdRP sequence (Table 8); not 229E crR19 (guide CACCATCGTAACAATCAAAGTA; chemistry not given here)”, in the data set with 229E virus, the “combination effect with Camostat mesylate (in words)” value is “promising synergistic effect”, the “combination effect with IFNα 4b (in words)” value is on record as “minus effect” and the “inhibition of virus replication” value came out at 50%.
As for “crR19: crRNA (guide) targeting RdRP of human 229E coronavirus; not R19 of Table 9 (guide CCAGCAGAAAUAAUACGGCUAG; chemistry not given here)”, the “inhibition of virus replication” value in the data set on 229E [1] was “about 80%”.
Regarding “N20: crRNA tested against live SARS-CoV-2 in Cas13d VeroE6 cells; best crRNA of that screen (guide ACUUCAUCAAUUAUGUCAGUUU; chemistry not given here)”, the “protection of cells from death by 229E infection (in words)” value in the data set on 229E [2] (229E MOI 0.01, up to 5 day infection) is recorded as “protected the cells from death”. For the same compound, the “protection of cells from death at different MOIs (in words)” value with 229E [2] (229E MOI up to 1.0 (FIG. 21A)) is “protected the cells from death”. For the same compound, in the data set with 229E virus, the “combination effect with Camostat mesylate (in words)” value is recorded as “promising synergistic effect”, the “combination effect with IFNα 4b (in words)” value was “additive effect” and the “inhibition of virus replication” value turned out to be 84%. Further, the “fold decrease of virus titer” value with 229E virus (PAC-MAN with the guide combined with IFNα 4b, vs NT) worked out at 10.1 fold. For the same compound, in the data set with 229E virus (setting [5]), the “fold decrease of virus titer” value is on record as 6.2 fold. Further, the “inhibition of virus replication” value in the data set with 229E [1] (guide screening, MRC-5 cells, viral titer in supernatant by RT-qPCR (FIG. 11)) was found to be 95%. Further, the “repression efficiency (viral RNA load)” value in the data set with SARS-CoV-2 was 96%.
On to “crN1: crRNA (guide) targeting N gene of human 229E coronavirus; not N1 of Table 9 (guide AGCCCAUUUGACUGUAGCCAUC; chemistry not given here)”, for which the cells alive result in the data set with 229E [2] is reported as “more than 90%”. For the same compound, the “inhibition of virus replication” value in the data set on 229E [1] is listed as “about 80%”.
Take “SEQ ID NO: 13606: crRNA targeting endogenous gene MTHFD1 (guide CAATATCATAAAAACAGGGCCGG; chemistry not fully specified)”: the “knockdown of MTHFD1 mRNA (in words)” value in data set [3] was “efficiently knocked down”.
As to “crR8: crRNA (guide) targeting RdRP of human 229E coronavirus (guide AAUCUUUAAUUGCAGCAUCACC; chemistry not given here)”, in the data set with 229E [1], the “inhibition of virus replication” value is listed as “about 80%”.
Turning to “SEQ ID NO: 13605: crRNA targeting endogenous gene TMPRSS2 (guide TACAGCGTAAAGAAACCACTGCT; chemistry not fully specified)”, the “knockdown of TMPRSS2 mRNA (in words)” value in data set [4] was “efficiently knocked down”.
